The values below come from patent publication US10149809B2, “Skin aging inhibitor and concentrate of resveratrol 3-O-α-glucoside” (priority 2014, dated 2018).

The nature of data set [1]: Solubility in solvent containing glycerol. It counts as physicochemical. The method, then:
(§1) Approximately 40 mg each of resveratrol 3-O-α-glucoside, resveratrol (Tokyo Chemical Industry Co., Ltd.), and resveratrol 3-O-β-glucoside (Tokyo Chemical Industry Co., Ltd.) was weighed, approximately 70 mg of a solvent (whose composition is shown in Table 18) containing ethanol (Wako Pure Chemical Industries, Ltd.) was added thereto, and the mixture was soaked in a water bath at 25° C. under light-tight conditions, and incubated for 15 hours with occasional stirring. After 15 hours, each of the samples was filtered through a 0.45 μm centrifugal filter, and then the concentration of each of the components in the filtrate was analyzed using HPLC under the same conditions as those described in Production Example 1 above. The dissolved concentration (w/v %) at 25° C. was thus determined.
The solubility of resveratrol 3-O-α-glucoside was evaluated under the same conditions as those described in Example 18 above, except that a solvent (whose composition is shown in Table 19) containing glycerol (Wako Pure Chemical Industries, Ltd.) was used.

Data set [2] can be described thus: Solubility in solvent containing 1,2-hexanediol. It counts as physicochemical. As for the experimental part:
as §1
The solubility of resveratrol 3-O-α-glucoside was evaluated under the same conditions as those described in Example 18 above, except that a solvent (whose composition is shown in Table 24) containing 1,2-hexanediol (Kankosha Co., Ltd.) was used.

Data set [3] in a line: Solubility in solvent containing 1,2-pentanediol. It is filed as physicochemical. The method, then:
as §1
The solubility of resveratrol 3-O-α-glucoside was evaluated under the same conditions as those described in Example 18 above, except that a solvent (whose composition is shown in Table 23) containing 1,2-pentanediol (Kankosha Co., Ltd.) was used.

Data set [4] relates to sirtuin 1 gene. The data set is described as follows: Sirtuin 1 gene expression-promoting effect (2). It counts as cell-based. Conditions: normal human epidermal keratinocytes, 0.001 wt %, 33 hours, medium without hydrocortisone; control = 100%. As for the experimental part:
Normal human epidermal keratinocytes were seeded into 12-well culture plates at 5×10^4 cells per well. As the medium, EpiLife KG-2 medium supplemented with insulin, hEGF, hydrocortisone, anti-microbial agents, and BPE was used (basal medium), and the cells were preincubated in 5% CO2 at 37° C. for 48 hours. The medium was removed, and then replaced with a sample medium obtained by removing hydrocortisone from the above-described basal medium, and by supplementing the resulting medium with resveratrol 3-O-α-glucoside to a concentration of 0.001 wt %, and the cells were cultured in 5% CO2 at 37° C. For comparison, the cells were cultured under the same conditions as described above, except that resveratrol 3-O-α-glucoside in the sample medium was replaced by resveratrol 3-O-β-glucoside. After 33 hours of culture, total RNA was extracted from the cells, and the level of expression of the sirtuin 1 gene was quantified by real time PCR. As a control group, cells were cultured without resveratrol 3-O-α-glucoside or resveratrol 3-O-β-glucoside, and total RNA collected from these cells was used. Taking as 100% the level of expression of the sirtuin 1 gene for the control group, a relative ratio of the expression level of the sirtuin 1 gene for the resveratrol 3-O-α-glucoside- or resveratrol 3-O-β-glucoside-supplemented group (SIRT 1 gene expression ratio, %) was determined. […]

The nature of data set [5]: Solubility in solvent containing ethanol. It is filed as physicochemical. The method, then: as §1
The test system of data set [6] is skin model (MEL-312B; MatTek). Briefly: Melanogenesis suppressing effect in skin model (amount of melanin, visual observation). It counts as cell-based. Conditions: 16 days; for Relative Amount of Melanin: PBS control group = 100%; for Visual Observation: compared with PBS control group. The method, then:
Resveratrol 3-O-α-glucoside, resveratrol (Tokyo Chemical Industry Co., Ltd.), or resveratrol 3-O-β-glucoside (Tokyo Chemical Industry Co., Ltd.) was prepared into a 0.2 wt % solution or suspension with the addition of PBS, and the resulting solution or suspension was used as a test substance. A skin model (MEL-312B; MatTek) was used, and 50 μL of the test substance was added to the horny layer side of the skin model and cultured in a special medium (EPI-100NMM-113; MatTek) at 37° C. for 16 days. On days 2, 4, 7, 9, 11, and 14, the medium and the test substance were replaced with fresh ones. As a control group, the same operation was performed using PBS instead of the test substance.
After 16 days of culture, the skin model was visually observed, and the amount of melanin in the skin model was evaluated. The amount of melanin was measured using the following method. Initially, the collected skin model was subjected to enzymatic degradation by proteinase-K, and was subsequently homogenated in PBS containing 1% triton X-100. Melanin was then extracted by washing with 10% TCA and ethanol. Next, the extracted melanin was dissolved in 0.5 mL of 1N-NaOH containing 10% DMSO at 80° C. for 2 hours, and the amount of melanin was quantified by measuring absorbance at 470 nm.
Resveratrol 3-O-α-glucoside was prepared into a 0.2 wt % solution, a 0.1 wt % solution, or a 0.01 wt % solution with the addition of PBS. The resulting solution was used as a test substance, and the melanogenesis suppressing effect was evaluated using the same method as that of Example 1 above. […]

The structures appear in SMILES notation.

On to `OC[C@H]1O[C@H](Oc2cc(O)cc(C=Cc3ccc(O)cc3)c2)[C@H](O)[C@@H](O)[C@@H]1O` [Resveratrol 3-O-α-Glucoside, resveratrol 3-O-α-glucoside], for which the dissolved concentration result in data set [1] is “exceeded 20 w/v %”; in data set [2], “exceeded 25 w/v %”; in data set [3], “exceeded 20 w/v %”; in data set [5], “exceeded 30 w/v %”. In addition, in data set [4], the “SIRT 1 Gene Expression Ratio (%)” value stood at 141%. Also, in data set [5] (15 h), the “Dissolved Concentration (w/v %) at 25° C.” value amounted to 0.3 w/v %. In addition, the “Relative Amount of Melanin” value in data set [6] (0.01 wt % in PBS) came out at 88%; in data set [6] (0.1 wt % in PBS) it was 67%; in data set [6] (0.2 wt % in PBS, 50 μL), 46%. For the same compound, the “Visual Observation” value in data set [6] (0.01 wt % in PBS) was “slightly whiter than the”.

For `OC[C@H]1O[C@@H](Oc2cc(O)cc(/C=C/c3ccc(O)cc3)c2)[C@H](O)[C@@H](O)[C@@H]1O` [Resveratrol 3-O-β-Glucoside, resveratrol 3-O-β-glucoside], the “Dissolved Concentration (w/v %) at 25° C.” value in data set [1] (Glycerol:Water 0:100 (weight ratio)) worked out at 0.04 w/v %; in data set [1] (Glycerol:Water 10:90 (weight ratio)) it was 0.05 w/v %; in data set [1] (Glycerol:Water 25:75 (weight ratio)), 0.09 w/v %; in data set [1] (Glycerol:Water 50:50 (weight ratio)), 0.3 w/v %; in data set [1] (Glycerol:Water 75:25 (weight ratio)), 1.1 w/v %; in data set [1] (Glycerol:Water 90:10 (weight ratio)) it was 1.9 w/v %. The “Dissolved Concentration (w/v %) at 25° C.” value in data set [1] (Glycerol:Water 100:0 (weight ratio)) came out at 3.1 w/v %; in data set [2] (1,2-Hexanediol:Water 0:100 (weight ratio)), 0.04 w/v %; in data set [2] (1,2-Hexanediol:Water 5:95 (weight ratio)), 0.1 w/v %; in data set [2] (1,2-Hexanediol:Water 10:90 (weight ratio)), 0.5 w/v %; in data set [2] (1,2-Hexanediol:Water 25:75 (weight ratio)), 2.6 w/v %; in data set [2] (1,2-Hexanediol:Water 50:50 (weight ratio)), 6.5 w/v %. Besides, the “Dissolved Concentration (w/v %) at 25° C.” value in data set [2] (1,2-Hexanediol:Water 75:25 (weight ratio)) is on record as 7.9 w/v %; in data set [2] (1,2-Hexanediol:Water 90:10 (weight ratio)) it was 10.7 w/v %; in data set [2] (1,2-Hexanediol:Water 100:0 (weight ratio)), 3.2 w/v %; in data set [3] (1,2-Pentanediol:Water 0:100 (weight ratio)), 0.04 w/v %; in data set [3] (1,2-Pentanediol:Water 10:90 (weight ratio)) it was 0.2 w/v %; in data set [3] (1,2-Pentanediol:Water 25:75 (weight ratio)) it was 2.3 w/v %. Besides, the “Dissolved Concentration (w/v %) at 25° C.” value is reported as 7.5 w/v % in data set [3] (1,2-Pentanediol:Water 50:50 (weight ratio)); 11.3 w/v % in data set [3] (1,2-Pentanediol:Water 75:25 (weight ratio)); 9.4 w/v % in data set [3] (1,2-Pentanediol:Water 90:10 (weight ratio)); 4.6 w/v % in data set [3] (1,2-Pentanediol:Water 100:0 (weight ratio)); 0.04 w/v % in data set [5] (Ethanol:Water 0:100 (weight ratio), 15 hours); 0.05 w/v % in data set [5] (Ethanol:Water 5:95 (weight ratio), 15 hours). The “Dissolved Concentration (w/v %) at 25° C.” value came to 0.06 w/v % in data set [5] (Ethanol:Water 10:90 (weight ratio), 15 hours); 0.1 w/v % in data set [5] (Ethanol:Water 15:85 (weight ratio), 15 hours); 0.2 w/v % in data set [5] (Ethanol:Water 20:80 (weight ratio), 15 hours); 0.4 w/v % in data set [5] (Ethanol:Water 25:75 (weight ratio), 15 hours); 0.7 w/v % in data set [5] (Ethanol:Water 30:70 (weight ratio), 15 hours); 2.6 w/v % in data set [5] (Ethanol:Water 40:60 (weight ratio), 15 hours). Further, the “Dissolved Concentration (w/v %) at 25° C.” value was 5.3 w/v % in data set [5] (Ethanol:Water 50:50 (weight ratio), 15 hours); 13.8 w/v % in data set [5] (Ethanol:Water 75:25 (weight ratio), 15 hours); 7.3 w/v % in data set [5] (Ethanol:Water 90:10 (weight ratio), 15 hours); 2.4 w/v % in data set [5] (Ethanol:Water 100:0 (weight ratio), 15 hours). The “SIRT 1 Gene Expression Ratio (%)” value in data set [4] came out at 120%. The “Visual Observation” value in data set [6] (0.2 wt % in PBS, 50 μL to horny layer side) was “the same as the control”. Further, the “Relative Amount of Melanin” value in data set [6] (0.2 wt % in PBS, 50 μL) was determined as 79%.
